In US9566312B2, “Cyclic peptides and use as medicines” (priority 2012, dated 2017):
Where two headings read alike, the source gives them in different places. Starred links: 1 amine or outer side, 2 acyl side, 3 side chain; linkers in the order of their positions; H or OH if unused. Non-standard residues stand in square brackets, D forms with d. Residues, ends and D or L forms follow the SMILES beside them. X25 = CCN1CCO[C@H](COC[C@@H](C)[C@@H](C(=O)[*:2])N(C)[*:1])C1; X58 = C[C@H](COCCN1CCN(C2CCC2)CC1)[C@@H](C(=O)[*:2])N(C)[*:1]; X22 = C[C@H](CN1CCN(C2CCC2)CC1)[C@@H](C(=O)[*:2])N(C)[*:1]; X63 = C[C@H](CN1CCN(C2COC2)CC1)[C@@H](C(=O)[*:2])N(C)[*:1]; X8 = COCCN1CCN(C[C@@H](C)[C@@H](C(=O)[*:2])N(C)[*:1])CC1; X21 = CCN1CCN(C[C@@H](C)[C@@H](C(=O)[*:2])N(C)[*:1])CC1; X14 = C[C@H](CN1CCN(C)CC1)[C@@H](C(=O)[*:2])N(C)[*:1]; X23 = COC1CN(C[C@@H](C)[C@@H](C(=O)[*:2])N(C)[*:1])C1; MeBmt = C/C=C/C[C@@H](C)[C@@H](O)[C@H](NC)C(=O)O; X13 = C[C@H](CC#N)[C@@H](C(=O)[*:2])N(C)[*:1]; X24 = C[C@H](CO)[C@@H](C(=O)[*:2])N(C)[*:1]; NMeL = CN[C@@H](CC(C)C)C(=O)O; NMeV = CN[C@H](C(=O)O)C(C)C; dNMeA = CN[C@H](C)C(=O)O; Abu = CC[C@H](N)C(=O)O

Tests used:
[1] = molecular target: CypF (Homo sapiens (Human), UniProt P30405); test: Inhibitor binding to cyclophilin proteins by SPR, CypF; conditions: 1:1 binding model
Sequence of CypF (P30405 30-207): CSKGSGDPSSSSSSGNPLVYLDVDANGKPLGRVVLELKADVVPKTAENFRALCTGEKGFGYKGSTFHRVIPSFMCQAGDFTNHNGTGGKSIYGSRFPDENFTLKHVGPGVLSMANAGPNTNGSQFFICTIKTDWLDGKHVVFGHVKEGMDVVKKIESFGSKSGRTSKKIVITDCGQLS
Summary of the method: (§1)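 Mono-biotinylated avi-tagged cyclophilins captured on a Biotin CAPture chip. Single-cycle kinetics at 50 μL/min, 1 min contacts, 10 min final dissociation, in 10 mM HEPES pH 7.4, 150 mM NaCl, 0.05% P20, 3% DMSO. kon, koff and KD from a 1:1 binding model.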

[2] = molecular target: CYP3A4 (Homo sapiens (Human), UniProt P08684); test: Time-dependent inhibition of CYP3A4;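 further: Two-step in vitro assay, kobs derived from residual CYP3A4 activity versus preincubation time per concentration, then kinact and KI by nonlinear fit of kobs against concentration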
Sequence of CYP3A4 (P08684 whole entry): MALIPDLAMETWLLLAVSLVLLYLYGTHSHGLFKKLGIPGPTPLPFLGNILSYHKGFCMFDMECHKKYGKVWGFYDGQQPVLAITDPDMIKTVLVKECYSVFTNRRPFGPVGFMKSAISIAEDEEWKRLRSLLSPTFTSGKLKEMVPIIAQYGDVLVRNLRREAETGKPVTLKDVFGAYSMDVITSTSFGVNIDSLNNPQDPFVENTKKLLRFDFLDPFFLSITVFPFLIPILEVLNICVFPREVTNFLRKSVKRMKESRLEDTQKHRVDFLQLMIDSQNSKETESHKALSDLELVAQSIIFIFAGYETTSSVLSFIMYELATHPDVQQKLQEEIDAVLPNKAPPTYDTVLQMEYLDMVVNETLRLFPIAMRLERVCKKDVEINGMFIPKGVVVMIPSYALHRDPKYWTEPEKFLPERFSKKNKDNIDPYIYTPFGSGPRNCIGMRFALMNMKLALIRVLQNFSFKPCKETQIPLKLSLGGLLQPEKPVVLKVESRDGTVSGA

[3] = test system: peripheral blood mononuclear cells (PBMC); test: Anti-proliferative or immunosuppressive activity, BrdU incorporation in PHA-stimulated PBMC; assay type: cell-based; conditions: PHA 3 μg/ml, 60 hour compound treatment; read-out: EMV PBMC IC50
Summary of the method: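 Fresh PBMCs from two donors, 30,000 per well in X-VIVO 15 medium, stimulated with 3 μg/ml PHA to drive T-cell proliferation. Proliferation measured as BrdU incorporation into DNA by BrdU ELISA.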

[4] = molecular target: cyclophilin B (CypB) (Homo sapiens (Human), UniProt P23284); test: Inhibitor binding to cyclophilin proteins by SPR, CypB; design: unit not given here; conditions: 1:1 binding model
Sequence of cyclophilin B (CypB) (P23284 34-216): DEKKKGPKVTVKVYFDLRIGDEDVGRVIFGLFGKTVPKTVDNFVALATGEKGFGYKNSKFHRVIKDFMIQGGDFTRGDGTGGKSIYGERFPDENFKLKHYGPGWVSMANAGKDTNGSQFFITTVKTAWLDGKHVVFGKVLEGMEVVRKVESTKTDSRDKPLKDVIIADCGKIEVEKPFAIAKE
Summary of the method: as §1

[5] = test system: genotype 1b subgenomic HCV replicon in Huh7.5 cells; assay type: cell-based, hepatitis C virus; conditions: read-out: RPLN-1b IC50
Summary of the method: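 Huh7.5 cells carrying genotype 1b subgenomic HCV replicon with renilla luciferase-neomycin reporter, in phenol red-free DMEM without G418. Luciferase measured after 72 h compound exposure relative to DMSO-treated cells; cytotoxicity (CC50) by Cell Titer-Glo.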

[6] = molecular target: cyclophilin A (CypA) (Homo sapiens (Human), UniProt P62937); test: Inhibitor binding to cyclophilin proteins by SPR, CypA; design: unit not given here; conditions: 1:1 binding model;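 further: Single-cycle kinetics on a Biacore T200, compound injected at several concentrations for 1 min each at 50 µL/min, then 10 min dissociation, in HEPES pH 7.4 buffer with 3% DMSO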
Sequence of cyclophilin A (CypA) (P62937 whole entry): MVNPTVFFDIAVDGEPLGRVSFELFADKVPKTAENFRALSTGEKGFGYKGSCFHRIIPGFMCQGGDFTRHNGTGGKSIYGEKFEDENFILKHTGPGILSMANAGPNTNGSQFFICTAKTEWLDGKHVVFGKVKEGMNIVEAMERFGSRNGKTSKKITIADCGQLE

[7] = molecular target: organic anion transporting polypeptide 1B1 (OATP1B1) (Homo sapiens (Human), UniProt Q9Y6L6); test: OATP assay in CHO-OATP1B1 cells;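 further: inhibition of probe substrate uptake into the cells, ten minutes exposure, accumulated substrate read by fluorescence once cells were lysed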
Sequence of organic anion transporting polypeptide 1B1 (OATP1B1) (Q9Y6L6 whole entry): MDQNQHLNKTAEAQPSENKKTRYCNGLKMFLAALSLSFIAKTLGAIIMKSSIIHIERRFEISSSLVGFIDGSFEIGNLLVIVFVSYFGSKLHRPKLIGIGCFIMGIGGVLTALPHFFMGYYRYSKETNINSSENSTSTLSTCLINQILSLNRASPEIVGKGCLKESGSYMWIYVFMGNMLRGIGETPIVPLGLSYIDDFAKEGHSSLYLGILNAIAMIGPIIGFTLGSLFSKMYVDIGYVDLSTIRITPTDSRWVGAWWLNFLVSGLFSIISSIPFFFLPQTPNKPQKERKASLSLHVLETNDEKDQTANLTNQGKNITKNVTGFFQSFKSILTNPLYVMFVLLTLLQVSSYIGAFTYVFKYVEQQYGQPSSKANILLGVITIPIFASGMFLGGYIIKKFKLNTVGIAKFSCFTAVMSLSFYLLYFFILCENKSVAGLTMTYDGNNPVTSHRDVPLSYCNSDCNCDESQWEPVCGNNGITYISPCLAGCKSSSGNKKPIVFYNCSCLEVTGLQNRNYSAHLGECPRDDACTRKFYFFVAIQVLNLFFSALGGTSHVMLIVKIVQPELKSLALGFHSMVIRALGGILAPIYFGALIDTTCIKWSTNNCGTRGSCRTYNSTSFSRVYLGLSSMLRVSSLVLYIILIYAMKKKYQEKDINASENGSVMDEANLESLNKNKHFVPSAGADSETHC

[8] = genotype 1b replicon, 72 h incubation

C/C=C/C[C@@H](C)[C@@H](O)[C@H]1C(=O)N[C@@H](CC)C(=O)N(C)[C@H](C)C(=O)N(C)[C@@H]([C@H](C)CO[C@H]2CCOC2)C(=O)N[C@@H](C(C)C)C(=O)N(C)[C@@H](CC(C)C)C(=O)N[C@@H](C)C(=O)N[C@H](C)C(=O)N(C)[C@@H](CC(C)C)C(=O)N(C)[C@@H](CC(C)C)C(=O)N(C)[C@@H](C(C)C)C(=O)N1C (stereo in doubt) [Compound 2.16]
CypF Kd [1]: 0.4 nM
Ki [2]: > 50000 nM
IC50 [3]: 13700 nM
CypB Kd [4]: 0.5
IC50 [5]: 25 nM
CypA Kd [6]: 1.0
IC50 [7]: 1900 nM

C/C=C/C[C@@H](C)[C@@H](O)[C@H]1C(=O)N[C@@H](CC)C(=O)N(C)[C@H](C)C(=O)N(C)[C@@H]([C@H](C)CO)C(=O)N[C@@H](C(C)C)C(=O)N(C)[C@@H](CC(C)C)C(=O)N[C@@H](C)C(=O)N[C@H](C)C(=O)N(C)[C@@H](CC(C)C)C(=O)N(C)[C@@H](CC(C)C)C(=O)N(C)[C@@H](C(C)C)C(=O)N1C [Compound 2.5.1, 3-[D-Ala]-4-[(2S,3S)-4-hydroxy-3-methyl-2-(methylamino)butanoyl]-cyclosporin] (cyclo(A[dA][NMeL][NMeL][NMeV][MeBmt][Abu][dNMeA][X24]V[NMeL]))
CypF Kd [1]: 2.2 nM
NIM TDI, result in words ([2]; probe substrate midazolam): No TDI
IC50 [3]: 6800 nM
CypB Kd [4]: 3.5
IC50 [5, 8]: 400 nM
CypA Kd [6]: 4.8
IC50 [7]: 3600 nM

C/C=C/C[C@@H](C)[C@@H](O)[C@H]1C(=O)N[C@@H](CC)C(=O)N(C)[C@H](C)C(=O)N(C)[C@@H]([C@H](C)CN2CCN(CCOC)CC2)C(=O)N[C@@H](C(C)C)C(=O)N(C)[C@@H](CC(C)C)C(=O)N[C@@H](C)C(=O)N[C@H](C)C(=O)N(C)[C@@H](CC(C)C)C(=O)N(C)[C@@H](CC(C)C)C(=O)N(C)[C@@H](C(C)C)C(=O)N1C [Compound 2.5.10, 3-[D-Ala]-4[(2S,3R)-2-Amino-4-[4-(2-methoxy-ethyl)-piperazin-1-yl]-3-methyl-butanoyl]-cyclosporin] (cyclo([MeBmt][Abu][dNMeA][X8]V[NMeL]A[dA][NMeL][NMeL][NMeV]))
CypF Kd [1]: 0.9 nM
KI (inactivation) [2]: > 50000 nM
IC50 [3]: 16800 nM
CypB Kd [4]: 1.2
IC50 [5]: 39 nM
CypA Kd [6]: 1.2
IC50 [7]: 6100 nM

C/C=C/C[C@@H](C)[C@@H](O)[C@H]1C(=O)N[C@@H](CC)C(=O)N(C)[C@H](C)C(=O)N(C)[C@@H]([C@H](C)CN2CCN(C3COC3)CC2)C(=O)N[C@@H](C(C)C)C(=O)N(C)[C@@H](CC(C)C)C(=O)N[C@@H](C)C(=O)N[C@H](C)C(=O)N(C)[C@@H](CC(C)C)C(=O)N(C)[C@@H](CC(C)C)C(=O)N(C)[C@@H](C(C)C)C(=O)N1C [Compound 2.5.11] (cyclo(A[dA][NMeL][NMeL][NMeV][MeBmt][Abu][dNMeA][X63]V[NMeL]))
CypF Kd [1]: 1 nM
Ki [2]: > 50000 nM
IC50 [3]: 13900 nM
CypB Kd [4]: 1.2
IC50 [5, 8]: 50 nM
CypA Kd [6]: 1.6
IC50 [7]: 1170 nM

C/C=C/C[C@@H](C)[C@@H](O)[C@H]1C(=O)N[C@@H](CC)C(=O)N(C)[C@H](C)C(=O)N(C)[C@@H]([C@H](C)CN2CCN(CC)CC2)C(=O)N[C@@H](C(C)C)C(=O)N(C)[C@@H](CC(C)C)C(=O)N[C@@H](C)C(=O)N[C@H](C)C(=O)N(C)[C@@H](CC(C)C)C(=O)N(C)[C@@H](CC(C)C)C(=O)N(C)[C@@H](C(C)C)C(=O)N1C [Compound 2.5.13, 3-[D-Ala]-4[(2S,3R)-2-Amino-4-(4-ethyl-piperazin-1-yl)-butanoyl]-cyclosporin] (cyclo(A[dA][NMeL][NMeL][NMeV][MeBmt][Abu][dNMeA][X21]V[NMeL]))
CypF Kd [1]: 0.5 nM
Ki [2]: > 50000 nM
IC50 [3]: 5300 nM
CypB Kd [4]: 0.8
IC50 [5, 8]: 50 nM
CypA Kd [6]: 0.9
IC50 [7]: 4560 nM

C/C=C/C[C@@H](C)[C@@H](O)[C@H]1C(=O)N[C@@H](CC)C(=O)N(C)[C@H](C)C(=O)N(C)[C@@H]([C@H](C)CN2CCN(C3CCC3)CC2)C(=O)N[C@@H](C(C)C)C(=O)N(C)[C@@H](CC(C)C)C(=O)N[C@@H](C)C(=O)N[C@H](C)C(=O)N(C)[C@@H](CC(C)C)C(=O)N(C)[C@@H](CC(C)C)C(=O)N(C)[C@@H](C(C)C)C(=O)N1C [Compound 2.5.14, 3-[D-Ala]-4[(2S,3R)-2-Amino-4-(4-cyclobutyl-piperazin-1-yl)-butanoyl]-cyclosporin] (cyclo(A[dA][NMeL][NMeL][NMeV][MeBmt][Abu][dNMeA][X22]V[NMeL]))
CypF Kd [1]: 0.5 nM
Ki [2]: > 50000 nM
IC50 [3]: 8100 nM
CypB Kd [4]: 0.7
IC50 [5, 8]: 32 nM
CypA Kd [6]: 1.0
IC50 [7]: 5200 nM

C/C=C/C[C@@H](C)[C@@H](O)[C@H]1C(=O)N[C@@H](CC)C(=O)N(C)[C@H](C)C(=O)N(C)[C@@H]([C@H](C)CN2CC(OC)C2)C(=O)N[C@@H](C(C)C)C(=O)N(C)[C@@H](CC(C)C)C(=O)N[C@@H](C)C(=O)N[C@H](C)C(=O)N(C)[C@@H](CC(C)C)C(=O)N(C)[C@@H](CC(C)C)C(=O)N(C)[C@@H](C(C)C)C(=O)N1C [Compound 2.5.17, 3-[D-Ala]-4-[(2S,3R)-4-(3-methoxyazetidin-1-yl)-3-methyl-2-(methylamino)butanoyl]-cyclosporin] (cyclo(A[dA][NMeL][NMeL][NMeV][MeBmt][Abu][dNMeA][X23]V[NMeL]))
CypF Kd [1]: 1 nM
Ki [2]: > 50000 nM
IC50 [3]: 17600 nM
CypB Kd [4]: 0.9
IC50 [5, 8]: 44 nM
CypA Kd [6]: 1.9
IC50 [7]: 4200 nM

C/C=C/C[C@@H](C)[C@@H](O)[C@H]1C(=O)N[C@@H](CC)C(=O)N(C)[C@H](C)C(=O)N(C)[C@@H]([C@H](C)CN2CCN(C)CC2)C(=O)N[C@@H](C(C)C)C(=O)N(C)[C@@H](CC(C)C)C(=O)N[C@@H](C)C(=O)N[C@H](C)C(=O)N(C)[C@@H](CC(C)C)C(=O)N(C)[C@@H](CC(C)C)C(=O)N(C)[C@@H](C(C)C)C(=O)N1C [Compound 2.5.29, 3-[D-Ala]-4-[(2S,3R)-3-methyl-2-(methylamino)-4-(4-methylpiperazin-1-yl)butanoyl]-cyclosporin] (cyclo(A[dA][NMeL][NMeL][NMeV][MeBmt][Abu][dNMeA][X14]V[NMeL]))
CypF Kd [1]: 0.6 nM
Ki [2]: > 50000 nM
IC50 [3]: 12200 nM
CypB Kd [4]: 0.7
IC50 [5, 8]: 56 nM
CypA Kd [6]: 1.5
IC50 [7]: 7900 nM

C/C=C/C[C@@H](C)[C@@H](O)[C@H]1C(=O)N[C@@H](CC)C(=O)N(C)[C@H](C)C(=O)N(C)[C@@H]([C@H](C)COCCN2CCN(C3CCC3)CC2)C(=O)N[C@@H](C(C)C)C(=O)N(C)[C@@H](CC(C)C)C(=O)N[C@@H](C)C(=O)N[C@H](C)C(=O)N(C)[C@@H](CC(C)C)C(=O)N(C)[C@@H](CC(C)C)C(=O)N(C)[C@@H](C(C)C)C(=O)N1C [Compound 2.8.8, 3-[D-Ala]-4-[(2S,3S)-4-(2-(4-cyclobutylpiperazin-1-yl)ethoxy)-3-methyl-2-(methylamino)butanoyl]-cyclosporin] (cyclo(A[dA][NMeL][NMeL][NMeV][MeBmt][Abu][dNMeA][X58]V[NMeL]))
CypF Kd [1]: 0.3 nM
NIM TDI kinact/Ki ([2]; probe substrate midazolam): 12 M⁻¹ s⁻¹
IC50 [3]: 18900 nM
CypB Kd [4]: 0.5
IC50 [5, 8]: 35 nM
CypA Kd [6]: 0.5
IC50 [7]: 3500 nM

C/C=C/C[C@@H](C)[C@@H](O)[C@H]1C(=O)N[C@@H](CC)C(=O)N(C)[C@H](C)C(=O)N(C)[C@@H]([C@H](C)CC#N)C(=O)N[C@@H](C(C)C)C(=O)N(C)[C@@H](CC(C)C)C(=O)N[C@@H](C)C(=O)N[C@H](C)C(=O)N(C)[C@@H](CC(C)C)C(=O)N(C)[C@@H](CC(C)C)C(=O)N(C)[C@@H](C(C)C)C(=O)N1C [Compound 2.10, 3-[D-Ala]-4-[(2S,3R)-4-cyano-3-methyl-2-(methylamino)butanoyl]-cyclosporin] (cyclo(A[dA][NMeL][NMeL][NMeV][MeBmt][Abu][dNMeA][X13]V[NMeL]))
CypF Kd [1]: 0.5 nM
Ki [2]: > 50000 nM
IC50 [3]: 12900 nM
CypB Kd [4]: 0.5
IC50 [5, 8]: 27 nM
CypA Kd [6]: 1.2
IC50 [7]: 900 nM

C/C=C/C[C@@H](C)[C@@H](O)[C@H]1C(=O)N[C@@H](CC)C(=O)N(C)[C@H](C)C(=O)N(C)[C@@H]([C@H](C)COC[C@@H]2CN(CC)CCO2)C(=O)N[C@@H](C(C)C)C(=O)N(C)[C@@H](CC(C)C)C(=O)N[C@@H](C)C(=O)N[C@H](C)C(=O)N(C)[C@@H](CC(C)C)C(=O)N(C)[C@@H](CC(C)C)C(=O)N(C)[C@@H](C(C)C)C(=O)N1C [Compound 2.20.1, 3-[D-Ala]-4-[(2S,3S)-4-(((S)-4-ethylmorpholin-2-yl)methoxy)-3-methyl-2-(methylamino)butanoyl]-cyclosporin] (cyclo(A[dA][NMeL][NMeL][NMeV][MeBmt][Abu][dNMeA][X25]V[NMeL]))
CypF Kd [1]: 0.5 nM
NIM TDI kinact/Ki ([2]; probe substrate midazolam): 6.7 M⁻¹ s⁻¹
CypB Kd [4]: 0.7
CypA Kd [6]: 0.7
IC50 [7]: 1900 nM
